Measured values published in ChEMBL document CHEMBL1122534, “Synthesis of 4-substituted 2H-naphth[1,2-b]-1,4-oxazines, a new class of dopamine agonists” (J Med Chem, 1984).

Molecular target: Dopamine receptor (Rattus norvegicus) (UniProt P25115+P19020+P30729+P18901+P61169)
Assay: ED50 for induction of contralateral turning behavior in 6-hydroxydopamine (6-OHDA) lesioned rats by ip administration.
Format: functional, organism-based

## CCN1CCOC2c3ccccc3CC[C@H]21 (some centres not stated)
  ED50: 1.7 mg/kg

## c1ccc2c(c1)CC[C@H]1NCCOC21 (some centres not stated)
  ED50: 30 mg/kg
